Activity calls are given as the source filed them. No cut-off for these calls is given here.
Legend:
[1] = test system: Mycobacterium tuberculosis; test: Inhibition of Mycobacterium tuberculosis 20S proteasome open-gate mutant using Suc-LLVY-AMC as substrate at 1 mM preincubated for 30 mins followed by substrate addition measured after 90 mins by fluorescence assay
[2] = test system: Mycobacterium tuberculosis; test: Inhibition of Mycobacterium tuberculosis 20S proteasome open-gate mutant chymotrypsin like activity using Suc-LLVY-AMC as substrate assessed as decrease in enzyme velocity up to 100 uM
[3] = Selectivity for Mycobacterium tuberculosis 20S proteasome open-gate mutant over human 20S proteasome
[4] = Inhibition of Mycobacterium tuberculosis 20S proteasome open-gate mutant using Suc-LLVY-AMC as substrate preincubated for 30 mins followed by substrate addition measured after 90 mins by fluorescence assay

Compound	inhibition [1]	inhibition [2]	Selectivity ratio [3]	IC50 [4] [nM]
CC(C)C[C@@H](NC(=O)[C@H](Cc1ccccc1)NC(=O)c1cnccn1)c1nsc(=O)o1	inactive	inactive		
COc1cccc(-c2nsc(=O)o2)c1			> 1000	
CC(C)C[C@H](NC(=O)[C@H](Cc1ccccc1)NC(=O)c1cnccn1)c1nsc(=O)o1	inactive	inactive		
CC(C)C[C@H](NC(=O)[C@H](Cc1ccccc1)NC(=O)c1cnccn1)B(O)O [BORTEZOMIB]				24.9

From ChEMBL document CHEMBL3217678 (Medchemcomm, 2011)
